Results on ten molecules are retold here after PubChem BioAssay (NCI).

“And” between values parts separate entries of the source, which are not always exact repeats. Identical values can stand only once.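 Results reflect a 48-hour exposure of cells in 96-well plates to compound at five concentrations. GI50: concentration for 50% inhibition of growth. TGI is the concentration that stops growth completely.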 Bounds are passed on as bounds.

Test systems include SN12C renal; TK-10 renal; CAKI-1 renal; SNB-19 CNS; MOLT-4 leukemia; HS 578T breast; MCF7 breast; COLO 205 colon; LOX IMVI melanoma; NCI/ADR-RES ovarian.
Holding throughout (experiment): NCI-60 cell line screen, 48 h

As to `COc1ccc(C(O)c2cc3c(N)c(C(=O)Nc4ccc(Cl)cc4)sc3nc2C)cc1` (stereo not drawn), the GI50 with SN12C renal is 5.53 µM; in the test on TK-10 renal it was 7.85 µM; in the test on CAKI-1 renal, 2.79 µM; with SNB-19 CNS it was 4.16 µM; in the test with MOLT-4 leukemia, 3.09 µM; in the test with HS 578T breast it was 1.82 µM. Further, the GI50 with MCF7 breast is 0.707 µM; with COLO 205 colon it was 3.99 µM; with LOX IMVI melanoma, 2.08 µM; with NCI/ADR-RES ovarian, 3.86 µM. Further, the TGI is 24.9 µM with SN12C renal; 43.9 µM in the test on TK-10 renal; 15.6 µM in the test with CAKI-1 renal; 44.6 µM in the test on SNB-19 CNS; more than 100 µM in the test with MOLT-4 leukemia; 5.3 µM in the test with HS 578T breast. In addition, the TGI in the test on MCF7 breast came out at 17.2 µM; in the test with COLO 205 colon it was 23 µM; with LOX IMVI melanoma it was 13.2 µM; in the test with NCI/ADR-RES ovarian, 28 µM.

`O=C1NC(=NCCc2ccc(F)cc2)S/C1=C\c1ccc2ncccc2c1`: the GI50 with SN12C renal, with TK-10 renal, with CAKI-1 renal, with SNB-19 CNS, in the test on MOLT-4 leukemia and in the test with HS 578T breast was more than 25 µM throughout. Further, the GI50 in the test with MCF7 breast was more than 23.1 µM; in the test with COLO 205 colon, more than 25 µM; with LOX IMVI melanoma it was more than 25 µM; in the test with NCI/ADR-RES ovarian, more than 25 µM. For the same molecule, the TGI with SN12C renal, in the test with TK-10 renal, in the test on CAKI-1 renal, in the test on SNB-19 CNS, in the test on MOLT-4 leukemia and in the test on HS 578T breast was more than 25 µM each time. In addition, the TGI in the test on MCF7 breast, with COLO 205 colon, in the test on LOX IMVI melanoma and in the test with NCI/ADR-RES ovarian was more than 25 µM each time.

Take `CCOC(=O)[C@@H](C)C[C@H](Cc1ccccc1)NC(=O)c1csc([C@@H](C[C@H](C(C)C)N(C)C(=O)[C@@H](NC(=O)[C@H]2CCCCN2C)C(C)(C)CC)OC(C)=O)n1`: the GI50 in the test on SN12C renal is 0.00247 µM; in the test with TK-10 renal, 0.0418 µM; with CAKI-1 renal it was 0.00176 µM; in the test with SNB-19 CNS it was less than 0.00167 µM; in the test on MOLT-4 leukemia it was 0.00338 µM; in the test with HS 578T breast, less than 0.00167 µM. Moreover, the GI50 is less than 0.00167 µM with MCF7 breast, less than 0.00167 µM in the test on COLO 205 colon, less than 0.00167 µM in the test with LOX IMVI melanoma and 0.00891 µM in the test with NCI/ADR-RES ovarian. Moreover, the TGI in the test on SN12C renal is 5.9 µM; with TK-10 renal, more than 16.7 µM; in the test with CAKI-1 renal it was more than 9.4 µM; with SNB-19 CNS, more than 16.7 µM; with MOLT-4 leukemia it was more than 13.1 µM; in the test with HS 578T breast, 2.17 µM. In addition, the TGI in the test with MCF7 breast is more than 16.7 µM; in the test with COLO 205 colon, 0.003 µM; in the test with LOX IMVI melanoma, 6.08 µM.

For `NS(=O)(=O)c1ccc(Nc2cc(-c3ccc(O)c(F)c3)[nH]n2)cc1`, the GI50 in the test on SN12C renal was more than 25 µM; with TK-10 renal it was more than 25 µM; in the test on CAKI-1 renal, more than 25 µM; with SNB-19 CNS, more than 25 µM; with MOLT-4 leukemia, more than 25 µM; in the test on HS 578T breast, 7.28 µM. The GI50 with MCF7 breast, in the test on COLO 205 colon, in the test with LOX IMVI melanoma and with NCI/ADR-RES ovarian was more than 25 µM each time. The TGI in the test with SN12C renal, in the test on TK-10 renal, with CAKI-1 renal, with SNB-19 CNS, in the test on MOLT-4 leukemia and in the test on HS 578T breast was more than 25 µM each time. The TGI in the test with MCF7 breast, in the test on COLO 205 colon, with LOX IMVI melanoma and in the test with NCI/ADR-RES ovarian was more than 25 µM throughout.

On to `CC(=O)OCC1OC(n2c(=S)n(-c3ccc([N+](=O)[O-])cc3)c(=O)c3ccccc32)C(OC(C)=O)C(OC(C)=O)C1OC(C)=O` (stereo not drawn), for which the TGI in the test on SN12C renal was 70.1 µM and 44.4 µM; in the test on TK-10 renal, 65.2 µM and 75.1 µM; in the test with CAKI-1 renal it was more than 100 µM; in the test on SNB-19 CNS it was 47.5 µM and 69.4 µM; in the test on MOLT-4 leukemia, more than 95.1 µM; in the test on HS 578T breast it was 68.5 µM. Moreover, the TGI is 52.6 µM in the test on MCF7 breast; more than 100 µM in the test with COLO 205 colon; 51.8 µM and 31.5 µM in the test on LOX IMVI melanoma; 95.2 µM in the test on NCI/ADR-RES ovarian. Also, the GI50 was 19.9 µM and 40.3 µM in the test with TK-10 renal; 25.3 µM and 35.9 µM in the test with CAKI-1 renal; 24.4 µM with SNB-19 CNS; 31.2 µM in the test on COLO 205 colon.

Consider `O=C(Nc1ccc(Oc2ccc(F)cc2)cc1)[C@@H]1C[C@@H](Cc2ccc(F)cc2)CN1C(=O)Cn1ccnn1`, for which the GI50 was 5.73 µM in the test on SN12C renal; 8.74 µM with TK-10 renal; 11.5 µM in the test on CAKI-1 renal; 9.45 µM with SNB-19 CNS; 4.2 µM in the test on MOLT-4 leukemia; 11.5 µM in the test on HS 578T breast. The GI50 with MCF7 breast was 3.74 µM; in the test on COLO 205 colon, 5.21 µM; in the test with LOX IMVI melanoma, 7.28 µM; in the test with NCI/ADR-RES ovarian it was 12.1 µM. Also, the TGI is 21.8 µM with SN12C renal; 35.3 µM in the test with TK-10 renal; 51.7 µM in the test on CAKI-1 renal; more than 100 µM with SNB-19 CNS; 31.6 µM in the test on MOLT-4 leukemia; 51.9 µM in the test on HS 578T breast. In addition, the TGI with MCF7 breast stood at 17.5 µM; in the test on COLO 205 colon, 16.8 µM; with LOX IMVI melanoma it was 22.2 µM; in the test with NCI/ADR-RES ovarian, 52.5 µM.

For `COc1cc2cc(Oc3ccc(NC(=O)Nc4cc(C(F)(F)F)cc(C(F)(F)F)c4)cc3)c(C)nc2cc1OCCN1CCOCC1`, the GI50 in the test with SN12C renal is 1.49 µM; with TK-10 renal it was 3.7 µM; in the test with CAKI-1 renal it was 1.47 µM; in the test on SNB-19 CNS, 1.88 µM; with MOLT-4 leukemia, 1.32 µM; in the test on HS 578T breast, 1.56 µM. For the same molecule, the GI50 in the test on MCF7 breast is 1.43 µM; with COLO 205 colon, 1.02 µM; in the test with LOX IMVI melanoma, 1.46 µM; in the test on NCI/ADR-RES ovarian, 1.59 µM. Further, the TGI came out at 5.48 µM in the test with SN12C renal; 12.5 µM with TK-10 renal; 5.68 µM in the test with CAKI-1 renal; 7.42 µM in the test with SNB-19 CNS; 4.29 µM in the test on MOLT-4 leukemia; 7 µM with HS 578T breast. In addition, the TGI was 3.91 µM in the test on MCF7 breast, 2.18 µM in the test on COLO 205 colon, 5.09 µM with LOX IMVI melanoma and 7.21 µM in the test on NCI/ADR-RES ovarian.

Take `C#Cc1cccc(Nc2ncnc3cc(NC(=O)CCl)ccc23)c1`: the GI50 with SN12C renal is 1.29 µM; in the test with TK-10 renal, 1.86 µM; with CAKI-1 renal, 1.78 µM; in the test on SNB-19 CNS, 2.96 µM; in the test on MOLT-4 leukemia, 0.739 µM; with HS 578T breast, 3.71 µM. In addition, the GI50 was 0.961 µM with MCF7 breast, 3.62 µM with COLO 205 colon, 0.74 µM with LOX IMVI melanoma and 4.65 µM with NCI/ADR-RES ovarian. Moreover, the TGI with SN12C renal was 4.81 µM; with TK-10 renal it was 5.98 µM; in the test on CAKI-1 renal, 6.06 µM; with SNB-19 CNS it was 6.03 µM; with MOLT-4 leukemia, 3.45 µM; in the test on HS 578T breast, 14.2 µM. Also, the TGI was 4.73 µM in the test on MCF7 breast, 7.45 µM in the test with COLO 205 colon, 2.97 µM in the test on LOX IMVI melanoma and 17.2 µM in the test with NCI/ADR-RES ovarian.

With `CCCCN(CCCC)C(=O)[C@H](CC)[C@@H]1CC[C@@H](C)[C@@H]([C@H](C)[C@@H](O)[C@@H](C)C(=O)[C@H](CC)C2O[C@]3(C=C[C@@H](O)[C@]4(CC[C@@](C)([C@H]5CC[C@](O)(CC)[C@H](C)O5)O4)O3)[C@H](C)C[C@@H]2C)O1` (stereo partly drawn), the GI50 was 2.13 µM in the test with SN12C renal; 3.57 µM in the test on TK-10 renal; 1.91 µM with CAKI-1 renal; 3.46 µM in the test with SNB-19 CNS; 2.68 µM in the test with MOLT-4 leukemia; 2.32 µM with HS 578T breast. In addition, the GI50 was 2.4 µM with MCF7 breast, 2.45 µM in the test on COLO 205 colon, 1.43 µM with LOX IMVI melanoma and 2.5 µM in the test on NCI/ADR-RES ovarian. Moreover, the TGI with SN12C renal is 7.34 µM; in the test on TK-10 renal it was more than 100 µM; in the test on CAKI-1 renal, 9.02 µM; with SNB-19 CNS, more than 100 µM; in the test on MOLT-4 leukemia, 8.31 µM; in the test on HS 578T breast, 7.83 µM. Besides, the TGI in the test with MCF7 breast is 7.77 µM; in the test with COLO 205 colon it was 5.99 µM; in the test with LOX IMVI melanoma, 2.97 µM; with NCI/ADR-RES ovarian, 9.02 µM.

As to `CCN(CC)c1ccc(/C=C/C(=O)c2ccc(Nc3nc(Nc4ccccc4)nc(Nc4ccccc4)n3)cc2)cc1`, the GI50 in the test with SN12C renal was more than 100 µM; with TK-10 renal, 2.39 µM; with CAKI-1 renal it was 5.17 µM; with SNB-19 CNS, 41.3 µM; with MOLT-4 leukemia, 2.08 µM; in the test on HS 578T breast, 4.04 µM. Moreover, the GI50 in the test with MCF7 breast is 1.99 µM; in the test with COLO 205 colon, 1.17 µM; with LOX IMVI melanoma it was 6.87 µM; in the test on NCI/ADR-RES ovarian, 4.3 µM. Besides, the TGI was more than 100 µM in the test with SN12C renal; 19.8 µM in the test with TK-10 renal; 38 µM in the test with CAKI-1 renal; more than 100 µM in the test on SNB-19 CNS; 12 µM in the test on MOLT-4 leukemia; 69.5 µM with HS 578T breast. The TGI in the test with MCF7 breast was 21.8 µM; with COLO 205 colon, 21.9 µM; in the test with LOX IMVI melanoma, more than 100 µM; in the test with NCI/ADR-RES ovarian it was more than 100 µM.
